According to patent publication US9452164B2, “Imidazopyridine derivatives, process for preparation thereof and therapeutic use thereof” (SANOFI, priority 2010, dated 2016):
Counter-ions that a name gives are not always drawn.

Assays:
[1] = tested on: HUVEC cells stimulated with FGF-2; test: FGF-2-induced in vitro proliferation of HUVEC cells; type: cell-based, human; conditions: HUVEC stimulated with FGF-2, ATP luminescence
Procedure: To do this, HUVEC human vein endothelial cells (promocell, C-12200) are seeded at a rate of 5000 cells per well of a 96-well plate (Biocoat collagen I cellware, Becton Dickinson 354650) in 100 μl of RPMI 1640 deprivation medium (Invitrogen, 31872-025) supplemented with 0.5% or 1% FCS, 2 mM glutamine, 1× sodium pyruvate (Invitrogen; 11360-039) and 1×NEAA (Invitrogen, 11140-035), overnight at 37° C. in the presence of 5% CO2. The following morning, the medium is suctioned-off and replaced with 50 μl of deprivation medium containing the antagonists at a 2× concentration, to which are added 50 μl of FGF-2 (R&D systems, 133-FB-025; Invitrogen, PHG0026) at 0.2 ng/ml (i.e. 2×). After 48 or 72 h, 100 μl of Cell Titer-GLO™ Luminescent Cell Viability Assay (Promega, G7571) are added for 10 min in order to measure, by means of a luminometer, the amount of ATP present in the cells and which is in relation to the number of cells per well corresponding to the cell proliferation.
The antagonists of the present invention are considered to be active as long as they are capable of inhibiting FGF-2-induced proliferation of HUVEC cells at a dose less than or equal to 300 nM.

OF1 female mice = test: Model of inflammatory angiogenesis in mice (air pocket granuloma, carmine red dye); type: in vivo; conditions: for % inhibition of the angiogenic parameter (dye content) / % inhibition of the inflammatory parameter (mass of the granuloma): daily oral, mice; for dye content corresponding to the angiogenesis / weight of the granuloma (dry weight of the skin), inflammation part: one week of daily treatment
Procedure: The model described by Colville-Nash et al., in 1995, makes it possible to study pharmacological agents capable of modulating the occurrence of angiogenesis in an inflammatory context. The model is developed on OF1 female mice (Charles River Laboratories) weighing approximately 25 g, and by groups of 12. The animals are anaesthetized with sodium pentobarbital (60 mg/kg; Sanofi Nutrition Sante animale)) intraperitoneally. An air pocket is created on the back of the mouse by subcutaneous injection of 3 ml of air. After they have awoken, the animals receive a treatment generally by gavage, and receive an injection of 0.5 ml of Freund's adjuvant (Sigma) with 0.1% of croton oil (Sigma) in the pocket. Seven days later, the mice are again anaesthetized and placed on a hot plate at 40° C. One ml of carmine red (Aldrich Chemicals, 5% in 10% of gelatin) is injected into the tail vein. The animals are then placed at 4° C. for 2-3 hours. The skins are then taken and dried for 24 h in an oven at 56° C. The dry tissues are weighed and placed in 1.8 ml of digestion solution (2 mM dithiothreitol, 20 mM Na2HPO4, 1 mM EDTA, 12 U/ml papain) for 24 h. The dye is then dissolved in 0.2 ml of 5M NaOH. The skins are centrifuged at 2000 rpm for 10 min at ambient temperature. The supernatants are filtered through 0.2 μm cellulose acetate membranes. The filtrates are read in a spectrophotometer at 492 nm against a carmine red calibration range. Two parameters are studyed: the dry weight of the granuloma and the amount of dye after digestion of the tissues. The results are expressed as mean values (±sem). The differences between the groups are tested with an ANOVA followed by a Dunnett's test, of which the reference group is the “solvent control” group.
The FGF-R antagonists are evaluated between 1 and 50 mg/kg using methylcellulose/tween (0.6% v/v) as vehicle or any other vehicle which allows the active ingredient to be solubilized. The molecules are administered daily, orally (one or two times a day) by gavage. The antagonists of the present invention are considered to be active as long as they enable a significant reduction in the angiogenic parameter, i.e. a reduction in the amount of carmine red dye in the skins of the animals tested.

[2] = tested on: HUVEC cells stimulated with FGF-2; test: FGF-2-induced in vitro angiogenesis of HUVEC cells; type: cell-based, human; conditions: HUVEC stimulated with FGF-2, 24 h, pseudotubule network length
Procedure: To do this, matrices composed of matrigel (growth factor reduced matrigel, Becton Dickinson 356230) and collagen (rat tail collagen type I, Becton Dickinson 354236) are deposited, at a rate of 160 μl, into each chamberslide well (Biocoat Cellware collagen, Type I, 8-well culturesides: Becton Dickinson 354630), or 60 μl per well of 96-well plates (Biocoat collagen I cellware, Becton Dickinson 354407). The matrix is prepared by mixing ⅓ of matrigel, 1 mg/ml final concentration of collagen, 0.1N NaOH (0.026× the volume of collagen in μl) and 1×PBS, and the volume is then adjusted with water. The gels are kept at 37° C. for 1 hour so as to allow them to polymerize. […] After 24 hours, the length of the network of microtubules formed was measured using a computer-assisted image analysis system (Imagenia Biocom, Courtaboeuf, France) and the total length of the pseudotubules in each well was determined. The average total length of the microcapillary network was calculated in μm for each condition corresponding to the average of 6 replicates. […]
In this experiment, the molecules are evaluated at 3 and 30 nM on induction of the angiogenesis of HUVEC human cells by FGF-2.

Cl.Cn1c(=O)n(Cc2ccc(F)cc2)c(=O)c2cc(C(=O)c3nc(-c4cccc(C(=O)OCCN5CCOCC5)c4)c4ccccn34)ccc21
melting point: 215 °C

Cn1c(=O)n(Cc2ccc(F)cc2)c(=O)c2cc(C(=O)c3nc(-c4cccc(C(=O)[O-])c4)c4ccccn34)ccc21.[Na+] [Compound No. 49, Sodium Salt of 3-(3-{[3-(4-fluorobenzyl)-1-methyl-2,4-dioxo-1,2,3,4-tetrahydroquinazolin-6-yl]carbonyl}imidazo[1,5-a]pyridin-1-yl)benzoic acid]
inhibition of proliferation as percentage of the control ([1]; 30 nM): 9% | inhibition of proliferation as percentage of the control ([1]; 300 nM): 29% | % inhibition of the angiogenic parameter (dye content) (OF1 female mice; 10 mg/kg, one week): 46% | % inhibition of the inflammatory parameter (mass of the granuloma) (OF1 female mice; 10 mg/kg, one week): 40% | dye content corresponding to the angiogenesis (OF1 female mice; 10 mg/kg): significantly reduce | weight of the granuloma (dry weight of the skin), inflammation part (OF1 female mice; 10 mg/kg): significantly reduce

CCCn1c(=O)[nH]c2ccc(C(=O)c3nc(-c4cccc(C(N)=O)c4)c4ccccn34)cc2c1=O [Compound No. 29, 3-{3-[(2,4-Dioxo-3-propyl-1,2,3,4-tetrahydroquinazolin-6-yl)carbonyl]imidazo[1,5-a]pyridin-1-yl}benzamide]
melting point: 345 to 346 °C

Cn1c(=O)n(Cc2ccc(F)cc2)c(=O)c2cc(C(=O)c3nc(-c4cccnc4)c4ccccn34)ccc21 (as salt: hydrochloride) [Compound No. 113, 3-(4-Fluorobenzyl)-1-methyl-6-[(1-pyridin-3-ylimidazo[1,5-a]pyridin-3-yl)carbonyl]quinazoline-2,4(1H,3H)-dione]
melting point: 267 °C

CCCn1c(=O)n(CCOc2ccc(F)cc2)c(=O)c2cc(C(=O)c3nc(-c4cccc(C(=O)[O-])c4)c4ccccn34)ccc21.[Na+] [Compound No. 223, Sodium Salt of 3-[3-({3-[2-(4-fluorophenoxy)ethyl]-1-propyl-2,4-dioxo-1,2,3,4-tetrahydroquinazolin-6-yl}carbonyl)imidazo[1,5-a]pyridin-1-yl]benzoic acid]
% inhibition of the angiogenic parameter (dye content) (OF1 female mice; 10 mg/kg, one week): 43% | % inhibition of the inflammatory parameter (mass of the granuloma) (OF1 female mice; 10 mg/kg, one week): 25%

CCCn1c(=O)[nH]c2ccc(C(=O)c3nc(-c4cccc(-c5nc(C)no5)c4)c4ccccn34)cc2c1=O [Compound No. 36, 6-({1-[3-(3-Methyl-1,2,4-oxadiazol-5-yl)phenyl]imidazo[1,5-a]pyridin-3-yl}carbonyl)-3-propylquinazoline-2,4(1H,3H)-dione]
melting point: 276 to 277 °C

CCCn1c(C)nc2ccc(C(=O)c3nc(-c4cccc(C(=O)O)c4)c4ccccn34)cc2c1=O [Compound No. 53, 3-{3-[(2-Methyl-4-oxo-3-propyl-3,4-dihydroquinazolin-6-yl)carbonyl]imidazo[1,5-a]pyridin-1-yl}benzoic acid]
melting point: 305 °C

CN(C)CCNC(=O)c1cccc(-c2nc(C(=O)c3ccc4c(c3)c(=O)n(Cc3ccc(F)cc3)c(=O)n4C)n3ccccc23)c1.Cl
melting point: 247 °C

CCCn1c(=O)[nH]c2ccc(C(=O)c3nc(-c4cccc(C(=O)[O-])c4)c4ccccn34)cc2c1=O.[Na+] [Compound No. 10, Sodium Salt of 3-{3-[(2,4-dioxo-3-propyl-1,2,3,4-tetrahydroquinazolin-6-yl)carbonyl]imidazo[1,5-a]pyridin-1-yl}benzoic acid]
% inhibition of the angiogenic parameter (dye content) (OF1 female mice; 30 mg/kg): 19% | % inhibition of the inflammatory parameter (mass of the granuloma) (OF1 female mice; 30 mg/kg): 19%

CCCn1c(=O)[nH]c2ccc(C(=O)c3nc(NS(C)(=O)=O)c4ccccn34)cc2c1=O [Compound No. 13, N-{3-[(2,4-Dioxo-3-propyl-1,2,3,4-tetrahydroquinazolin-6-yl)carbonyl]imidazo[1,5-a]pyridin-1-yl}methanesulphonamide]
melting point: 334 °C

CCCn1c(=O)n(Cc2ccc(F)cc2)c(=O)c2cc(C(=O)c3nc(-c4cccc(C(=O)[O-])c4)c4ccccn34)ccc21.[Na+] [Compound No. 72, Sodium Salt of 3-(3-{[3-(4-fluorobenzyl)-1-propyl-2,4-dioxo-1,2,3,4-tetrahydroquinazolin-6-yl]carbonyl}imidazo[1,5-a]pyridin-1-yl)benzoic acid]
inhibition of angiogenesis as a percentage of the control ([2]; 3 nM): 36% | inhibition of angiogenesis as a percentage of the control ([2]; 30 nM): 24% | inhibition of proliferation as percentage of the control ([1]; 30 nM): 38% | inhibition of proliferation as percentage of the control ([1]; 300 nM): 55% | % inhibition of the angiogenic parameter (dye content) (OF1 female mice; 10 mg/kg, one week): 43% | % inhibition of the inflammatory parameter (mass of the granuloma) (OF1 female mice; 10 mg/kg, one week): 38% | dye content corresponding to the angiogenesis (OF1 female mice; 10 mg/kg): significantly reduce | weight of the granuloma (dry weight of the skin), inflammation part (OF1 female mice; 10 mg/kg): significantly reduce

O=C(c1ccc2nc[nH]c(=O)c2c1)c1ncc2ccccn12 [Compound No. 3, 6-(Imidazo[1,5-a]pyridin-3-ylcarbonyl)quinazolin-4(3H)-one]
melting point: 289 °C

CCCn1c(=O)[nH]c2ccc(C(=O)c3ncc4ccc(C(=O)O)cn34)cc2c1=O [Compound No. 8, 3-[(2,4-Dioxo-3-propyl-1,2,3,4-tetrahydroquinazolin-6-yl)carbonyl]imidazo[1,5-a]pyridine-6-carboxylic acid]
melting point: 384 °C

CCCn1c(C)nc2ccc(C(=O)c3nc(-c4cccc(C(N)=O)c4)c4ccccn34)cc2c1=O [Compound No. 55, 3-{3-[(2-Methyl-4-oxo-3-propyl-3,4-dihydroquinazolin-6-yl)carbonyl]imidazo[1,5-a]pyridin-1-yl}benzamide]
melting point: 238 °C

CCCn1c(=O)[nH]c2ccc(C(=O)c3ncc4ccccn34)cc2c1=O [Compound No. 1, 6-(Imidazo[1,5-a]pyridin-3-ylcarbonyl)-3-propylquinazoline-2,4(1H,3H)-dione]
melting point: 304 °C
